Reference: PMC9961069 (Metabolites, 2023)

Assays:
MDA-MB-231 cells = assay: LC/MS-based metabolite profiling; type: cell-based, Human; conditions: 24 h; for AICAR levels with FA treatment / Orotate levels with FA supplementation: 10 μM + 300 μg/mL FA; for AICAR levels / Orotate levels / UDP level: 10 μM; for AICAR levels / Orotate levels: inhibitor alone; for UDP level: inhibitor alone versus DMSO
Method: For characterization by mass spectrometry, MDA-MB-231 cells were seeded at a density of 3 × 10^5 cells per well in 6-well plates. […] DMSO only and DMSO + folinic acid controls were also performed. Per condition, biological quadruplicates of approximately one million cells were harvested, washed briefly with 1 mL of 0.9% NaCl (prepared in LC/MS-grade water Fisher Scientific W6500), and extracted in 500 μL prechilled extraction buffer (80% LC/MS-grade methanol, 20% 125 mM ammonium acetate, 12.5 mM sodium ascorbate prepared in LC/MS-grade water and supplemented with aminopterin (catalog no.: 16.330; Schircks Laboratories) and isotopically labeled internal standards (17 amino acids and reduced glutathione [Cambridge Isotope Laboratories; MSK- A2-1.2 and CNLM-6245-10])) using a cell scraper. After centrifugation for 10 min, 4 °C, at maximum speed on a benchtop centrifuge (Eppendorf), the cleared supernatant was transferred to a new tube and dried using a nitrogen dryer (Reacti-Vap™ Evaporator, Thermo Fisher Scientific, TS-18826) while on ice. Once the drying process was completed, samples were reconstituted in 50 µL QReSS water (Cambridge Isotope Laboratories, MSK-QRESS-KIT) by brief sonication in a 4 °C water bath. Extracted metabolites were spun for 3 min, 4 °C, at maximum speed on a bench-top centrifuge, and cleared supernatant was transferred to LC/MS microvials (National Scientific, C5000-45B). Three microliters of each sample were pooled and serially diluted 3- and 10-fold to be used as quality controls throughout the run of each batch. Unlabeled QReSS metabolites (Cambridge Isotope Laboratories, MSK-QReSS-US-KIT) and unlabeled amino acid mix standard (Cambridge Isotope Laboratories, MSK-A2-US-1.2) were also included in the run to ensure high-quality metabolomics results.
One microliter (equivalent to 2 × 10^4 cells) of the reconstituted sample was injected into a ZIC-pHILIC 150 × 2.1 mm (5 µm particle size) column (EMD Millipore) operated on a Vanquish™ Flex UHPLC Systems (Thermo Fisher Scientific, San Jose, CA, USA). Chromatographic separation was achieved using the following conditions: buffer A was acetonitrile; buffer B was 20 mM ammonium carbonate, 0.1% ammonium hydroxide. Gradient conditions were: linear gradient from 20% to 80% B; 20–20.5 min: from 80% to 20% B; 20.5–28 min: hold at 20% B. The column oven and autosampler tray were held at 25 °C and 4 °C, respectively.
Mass spectrometry data acquisition was performed using a QExactive benchtop orbitrap mass spectrometer equipped with an Ion Max source and a HESI II probe (Thermo Fisher Scientific, San Jose, CA, USA) and was performed in positive and negative ionization mode in a range of m/z = 70–1000, with the resolution set at 70,000, the AGC target at 1 × 10^6, and the maximum injection time (Max IT) at 20 msec. For nucleotide tSIM scans, the resolution was set at 70,000, the AGC target was 1 × 10^5, and the max IT was 100 msec.
Manual curation and integration of chromatographic peaks were performed with TraceFinder 4.1 (Thermo Fisher Scientific, Waltham, MA, USA) using a 5 ppm mass tolerance and referencing an in-house library of chemical standards. Data from TraceFinder were further consolidated and normalized with an in-house R script: (https://github.com/FrozenGas/KanarekLabTraceFinderRScripts/blob/main/MS_data_script_v2.4_20221018.R (accessed on 22 November 2022)). Briefly, this script performs normalization and quality control steps: (1) extracts and combines the peak areas from TraceFinder output .csvs; (2) calculates and normalizes to an averaged factor from all mean-centered chromatographic peak areas of isotopically labeled amino acids internal standards within each sample; (3) filters out low-quality metabolites based on user inputted cut-offs calculated from pool reinjections and pool dilutions; (4) calculates and normalizes for biological material amounts based on the total integrated peak area values of high-confidence metabolites. […]

[1] = tested on: T1, DHFR in MDA-MB-468 lysates; assay: Lysate cellular thermal shift assay (CETSA) for DHFR; type: binding, Human; conditions: 10 μM, MDA-MB-468 lysate, 45 °C for 3 min, DMSO at 37 °C = 100%
T1 construct: reactions containing 55 μg MDA-MB-468 lysate; endogenous in cells; host or cells: MDA-MB-468

CC1(C)N=C(N)N=C(N)N1c1ccc(Cl)cc1 [Cyc, Cycloguanil]
AICAR levels with FA treatment (MDA-MB-231 cells): returned AICAR to the same levels as vehicle controls
Orotate levels with FA supplementation (MDA-MB-231 cells): returned orotate to vehicle control levels
AICAR levels (MDA-MB-231 cells): much larger increases in AICAR
Orotate levels (MDA-MB-231 cells): decreased or statistically insignificant changes in orotate levels
UDP level (MDA-MB-231 cells): significantly depleted
Normalized Band Density (%) of soluble DHFR [1]: greater than 100%
Normalized Band Density (%) of soluble DHFR ([1]; listed as Cycloguanil): 125.67 ± 39.6%

CC1(C)N=C(N)N=C(N)N1c1ccc(CCCCc2ccc(S(=O)(=O)F)cc2)c(Cl)c1 [compound 127159]
AICAR levels with FA treatment (MDA-MB-231 cells): further increased AICAR
Orotate levels with FA supplementation (MDA-MB-231 cells): orotate remained elevated in the presence of FA
AICAR levels (MDA-MB-231 cells): increased slightly, yet significantly
Orotate levels (MDA-MB-231 cells): stark increase in orotate levels
UDP level (MDA-MB-231 cells): not upon treatment with MTX and 127159 alone
Normalized Band Density (%) of soluble DHFR [1]: 99.96 ± 26.2%

CCc1nc(N)nc(N)c1-c1ccc(Cl)cc1 [Pyr, Pyrimethamine]
AICAR levels with FA treatment (MDA-MB-231 cells): returned AICAR to the same levels as vehicle controls
Orotate levels with FA supplementation (MDA-MB-231 cells): returned orotate to vehicle control levels
AICAR levels (MDA-MB-231 cells): much larger increases in AICAR
Orotate levels (MDA-MB-231 cells): decreased or statistically insignificant changes in orotate levels
UDP level (MDA-MB-231 cells): significantly depleted
Normalized Band Density (%) of soluble DHFR [1]: greater than 100%
Normalized Band Density (%) of soluble DHFR ([1]; listed as Pyrimethamine): 104.12 ± 33.5%
